Reference: patent US8029980B2, “Identification and use of agents that modulate oncogenic transcription agent activity” (The Board of Trustees of the University of Illinois, priority 2006, dated 2011)

System: FoxM1 target genes Cdc25B, Survivin, and CENPB
Assay: Real-time quantitative RT-PCR of FoxM1 target gene mRNA in C3-Luc cells
Type: cell-based, human
Settings: 24 hrs, vs DMSO
Procedure: FIG. 2. Siomycin A inhibits endogenous FoxM1 transcriptional activity. (A) C3-Luc cells without doxycycline induction, were treated with increasing dose of Siomycin A and luciferase activity was determined as described in Example 1. (B) C3-Luc cells treated either with DMSO (control) or Siomycin A were harvested 24 hrs later and the RNA was subjected to real-time RT-PCR for quantitation of mRNA levels of FoxM1 target genes Cdc25B, Survivin, and CENPB. (C) C3-Luc cells treated as indicated were harvested 24 hrs later and used for immunoblot analysis to determine the levels of survivin, and p21^WAF1. β-actin protein levels were used as loading control.
Cells treated with Siomycin A or DMSO (control) were harvested 24 hrs later and RNA was extracted using the TRIzol reagent (15596-026; Invitrogen). cDNA was prepared from this RNA using the Bio-Rad cDNA synthesis kit. The following sense (S) and antisense (AS) primer sequences and annealing temperatures (Ta) were used to amplify and measure the amount of human mRNA by real-time RT-PCR: FoxM1-S, 5′-GGAGGAAATGCCACACTTAGCG-3′ (SEQ ID NO: 1), and FoxM1-AS, 5′-TAGGACTTCTTGGGTCTTGGGGTG-3′ (SEQ ID NO: 2) (Ta, 55.7° C.); survivin-S, 5′-TCAAGGACCACCGCATCTCTA-3′ (SEQ ID NO: 3), and survivin-AS, 5′-TGAAGCAGAAGAAACACTGGGC-3′ (SEQ ID NO: 4) (Ta, 61° C.); CENPB-S, 5′-ATTCAGACAGTGAGGAAGAGGACG-3′ (SEQ ID NO: 5), and CENPB-AS, 5′-CATCAATGGGGAAGGAGGTCAG-3′ (SEQ ID NO: 6) (Ta, 58° C.); Cdc25B-S, 5′-CCCTTCCCTGTTTTCCTTTC-3′ (SEQ ID NO: 7), and Cdc25B-AS, 5′-ACACACACTCCTGCCATAGG-3′ (SEQ ID NO: 8) (Ta, 61.7° C.). These real-time RT-PCR RNA levels were normalized to human cyclophilin mRNA levels, and these primers are as follows: cyclophilin-S, 5′-GCAGACAAGGTCCCAAAGACAG-3′ (SEQ ID NO: 9), and cyclophilin-AS, 5′-CACCCTGACACATAAACCCTGG-3′ (SEQ ID NO: 10) (Ta, 55.7° C.).

C=C(NC(=O)C(=C)NC(=O)c1csc(C2=N[C@@H]3c4csc(n4)[C@H]4NC(=O)c5csc(n5)[C@H]([C@](C)(O)[C@@H](C)O)NC(=O)[C@H]5CSC(=N5)/C(=C/C)NC(=O)[C@H]([C@@H](C)O)NC(=O)c5csc(n5)[C@]3(CC2)NC(=O)[C@H](C)NC(=O)C(=C)NC(=O)C(=C)NC(=O)[C@H](C(C)C)N[C@@H]2C=Cc3c([C@H](C)O)cc(nc3[C@H]2O)C(=O)O[C@@H]4C)n1)C(N)=O [Siomycin A]
CENPB mRNA level compared to initial level: 15%
Cdc25B mRNA level relative to basal value: 32%
Survivin mRNA level compared to initial level: 48%
